Measurements as given in patent US9540307B2, “Statins of omega-3 polyunsaturated acids for treating hypercholesterolemia” (Jiva Pharma, Inc., priority 2014, dated 2017).
Where a name gives a salt, the structure may show the parent alone.

Molecular target: T1, soluble catalytic domain fragment of human HMG reductase (Homo sapiens, UniProt P04035)
T1 construct: composed of insoluble transmembrane segment and soluble catalytic domain; purchased Sigma-Aldrich CS 1090
T1 sequence (P04035 340-888 limits assumed): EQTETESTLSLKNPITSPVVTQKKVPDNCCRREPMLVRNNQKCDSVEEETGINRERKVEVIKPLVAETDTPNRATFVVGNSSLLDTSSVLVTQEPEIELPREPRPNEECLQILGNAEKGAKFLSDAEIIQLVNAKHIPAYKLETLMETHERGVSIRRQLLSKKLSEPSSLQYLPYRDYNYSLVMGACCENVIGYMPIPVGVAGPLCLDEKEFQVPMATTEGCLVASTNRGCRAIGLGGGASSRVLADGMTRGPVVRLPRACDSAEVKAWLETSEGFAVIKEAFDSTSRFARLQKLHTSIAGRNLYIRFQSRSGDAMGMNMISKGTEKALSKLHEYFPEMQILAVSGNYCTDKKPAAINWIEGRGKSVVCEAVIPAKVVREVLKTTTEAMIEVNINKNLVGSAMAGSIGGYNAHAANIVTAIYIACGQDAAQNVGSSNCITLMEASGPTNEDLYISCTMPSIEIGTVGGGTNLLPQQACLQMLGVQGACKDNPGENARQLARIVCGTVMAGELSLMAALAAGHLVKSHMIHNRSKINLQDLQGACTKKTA
Test: HMG-Co-A reductase inhibition activity, dose-response curves (Sigma-Aldrich assay kit, absorbance at 340 nm)
Type: biochemical
Conditions: for IC50: NADP(H) 250 μM, sub-saturating NADP(H) and coenzyme A, decrease in absorbance at 340 nm, read-out: IC50 μM error; for Hill coefficient: fit of the dose-response curve; for potency relative to pravastatin in inhibiting HMG-CO-A-reductase enzyme: fraction of the potency of pravastatin
From the text: SigmaAldrich. […] In: catalog number CS 1090. […].com/catalog/product/[…]®ion=HR. […] Holdgate G, Ward […]. […] Louis-Flamberg […], Bryan D L, Leber J, Elliott […] et al. […], Buchanan […]. Crystal structure of the catalytic portion of human HMG-CoA reductase: insights into regulation of activity and catalysis. […] Motulsky H, Christopoulos A. Fitting Models to Biological Data Using Linear and Nonlinear Regression: A Practical Guide to Curve Fitting Oxford University Press, USA; 1 edition 2004. […] Briefly, the dose-response curves have been measured using soluble catalytic domain fragment of human HMG reductase. […] The activity was measured by following decrease in a sample's absorbance at 340 nm caused by enzymatic oxidation of NADP(H) in presence of coenzyme A. […] NADP(H) concentration in the assay mix was adjusted to 250 μM. […] Stock solutions of Na salts of EPA-statin, ALA-statin were prepared in assay buffer in concentration of 50 mM, and subsequently diluted to lower concentrations in the same buffer as needed.

Row | Structure (SMILES) | IC50 [µM] | Hill coefficient | potency relative to pravastatin in inhibiting HMG-CO-A-reductase enzyme
1 | CC/C=C\C/C=C\C/C=C\C/C=C\C/C=C\CCC[C@@H](O)C[C@@H](O)CC(=O)[O-].[Na+] [EPA-statin, Na salt, Sodium (3R,5R,9Z,12Z,15Z,18Z,21Z)-3,5-dihydroxytetracosa-9,12,15,18,21-pentaenoate] | 94 ± 8 | 1.6 ± 0.6 | about 1/100
2 | CC/C=C\C/C=C\C/C=C\CCCCCCC[C@@H](O)C[C@@H](O)CC(=O)O [ALA-statin, Na salt, Sodium (3R,5R,13Z,16Z,19Z)-3,5-dihydroxydocosa-13,16,19-trienoate] | 25 ± 7 | 1.3 ± 0.3 | about 1/20
